Structures are written as SMILES. “And” between values parts separate entries of the source, which are not always exact repeats. Equal values may be shown once.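 Dose response: 5 concentrations. Exposure: 48 h. Format: 96-well plates. Endpoint: linear interpolation; highest concentration if not reached. GI50 marks 50% less growth. Definition used: TGI = concentration required for complete inhibition of growth.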

The values below come from PubChem BioAssay (NCI).

Among the test systems are BT-549 breast; CCRF-CEM leukemia; COLO 205 colon; HCC-2998 colon; HCT-15 colon; MALME-3M melanoma; NCI/ADR-RES ovarian; OVCAR-5 ovarian; SR leukemia; SW-620 colon.
Holding throughout (test): NCI anticancer screen, dose series, 48 h

`NCCCCc1cc(O)c2c(c1O)C(=O)c1ccccc1C2=O`: the TGI in the test with BT-549 breast is 49.9 µM; in the test with CCRF-CEM leukemia, 14.4 µM; with COLO 205 colon, 10.4 µM; in the test on HCC-2998 colon, 28 µM; in the test with HCT-15 colon, 25.5 µM; in the test with MALME-3M melanoma it was 30 µM. The TGI in the test with NCI/ADR-RES ovarian was 30.5 µM; with OVCAR-5 ovarian, 28.5 µM; in the test with SR leukemia, 19.8 µM; in the test on SW-620 colon, greater than 44.2 µM.
On to `CCn1c(-c2ccc(N=NNc3ccc(-c4n[nH]c(=S)n4CC)cc3)cc2)n[nH]c1=S`, for which the TGI is 5.73 µM in the test on BT-549 breast; 61.6 µM in the test with CCRF-CEM leukemia; greater than 100 µM with HCT-15 colon; 7.75 µM in the test on MALME-3M melanoma; greater than 100 µM in the test with NCI/ADR-RES ovarian; greater than 100 µM in the test on SR leukemia. In addition, the TGI with SW-620 colon was greater than 100 µM.
Take `O=C(O)C1C2CCC(O2)C1C(=O)Nc1cccc2cccnc12` (stereo not drawn): the TGI with BT-549 breast, in the test with HCC-2998 colon, with HCT-15 colon, in the test with MALME-3M melanoma, in the test on NCI/ADR-RES ovarian and with OVCAR-5 ovarian was greater than 100 µM each time. Moreover, the TGI with SR leukemia and in the test on SW-620 colon was greater than 100 µM throughout.
Regarding `O=C(/C=C/c1ccc(O)c(-c2cc(C(=O)/C=C/c3ccc(O)cc3)c(O)cc2O)c1)c1ccc(O)cc1O`, the TGI with BT-549 breast was greater than 50 µM; in the test on CCRF-CEM leukemia it was 37.3 µM; in the test with COLO 205 colon, 24 µM; in the test with HCT-15 colon it was greater than 50 µM; with MALME-3M melanoma it was greater than 50 µM; in the test with NCI/ADR-RES ovarian, greater than 50 µM. Besides, the TGI with OVCAR-5 ovarian is greater than 50 µM; in the test on SR leukemia it was 28.4 µM; with SW-620 colon, greater than 50 µM.
For the molecule `CNc1ccc2c(c1)[C@@]1(C)c3ccccc3[C@@H](C2)N1C`, the TGI in the test with BT-549 breast was 35.9 µM; with CCRF-CEM leukemia, 52.7 µM; in the test with HCC-2998 colon, 44.5 µM; with HCT-15 colon, 53 µM; with MALME-3M melanoma it was 82.1 µM; in the test on NCI/ADR-RES ovarian, 64.2 µM. In addition, the TGI is 86.2 µM with OVCAR-5 ovarian, 54.7 µM with SR leukemia and greater than 100 µM in the test on SW-620 colon.
Consider `CC12CC3OC(=O)C1COC14OC5(C2C1=O)C(O)(CCC1C4CC(O)C2(O)CC=CC(=O)C12C)C(=O)OC35C` (stereo not drawn), for which the TGI in the test on BT-549 breast, in the test with CCRF-CEM leukemia, in the test on COLO 205 colon, in the test with HCC-2998 colon, with HCT-15 colon and in the test with MALME-3M melanoma was greater than 100 µM in each case. The TGI with NCI/ADR-RES ovarian, with OVCAR-5 ovarian and in the test on SW-620 colon was greater than 100 µM in each case.
`Nc1nc(SCCc2ccccc2)nc2nc3c(c(-c4ccccc4)c12)CCCC3`: the TGI in the test on BT-549 breast, in the test with CCRF-CEM leukemia, in the test on COLO 205 colon, in the test on HCT-15 colon, in the test on MALME-3M melanoma and in the test on NCI/ADR-RES ovarian was greater than 100 µM throughout. Further, the TGI in the test on SW-620 colon is greater than 100 µM.
Regarding `NCCSC(c1ccccc1)c1ccccc1`, the TGI in the test with BT-549 breast was greater than 100 µM; in the test with CCRF-CEM leukemia, greater than 100 µM; in the test on COLO 205 colon it was 38.7 µM; in the test with HCT-15 colon it was greater than 100 µM; in the test on MALME-3M melanoma it was 37.1 µM; with NCI/ADR-RES ovarian, greater than 100 µM. In addition, the TGI with OVCAR-5 ovarian stood at 34 µM; in the test on SR leukemia, 43 µM; in the test on SW-620 colon, 37.9 µM.
On to `COc1nc(C#CC2(O)CCCCC2)nc(OC)n1`, for which the TGI in the test on BT-549 breast was determined as 28 µM; in the test with CCRF-CEM leukemia it was 48.6 µM; in the test on COLO 205 colon, 45.5 µM; in the test on HCT-15 colon, 15.6 µM; with MALME-3M melanoma it was 15.3 µM; with NCI/ADR-RES ovarian, 68.9 µM. For the same molecule, the TGI was found to be 25.4 µM in the test on OVCAR-5 ovarian, 17.4 µM in the test on SR leukemia and 24.1 µM in the test with SW-620 colon.
In the case of `CCCCCCCCC/C=C/C=C/C(=O)NCC(=O)NC1C(O)C(O)C(Nc2ncnc3nc[nH]c23)OC1C(O)CO` (stereo not drawn), the GI50 with COLO 205 colon was 0.0002 µM; in the test on HCT-15 colon it was 2.05 µM; in the test with MALME-3M melanoma, 0.00446 µM; in the test with OVCAR-5 ovarian it was 0.00137 µM; in the test on SR leukemia it was 0.765 µM; in the test on SW-620 colon, 0.00284 µM. For the same molecule, the TGI in the test with COLO 205 colon is 0.00389 µM and 0.0337 µM; in the test with MALME-3M melanoma, 0.381 µM; with OVCAR-5 ovarian, 0.0182 µM and 0.0671 µM; in the test on SW-620 colon, 0.112 µM.
`Cc1c(N2C(=O)CS(=O)(=O)C2c2cccc(Oc3ccccc3)c2)c(=O)n(-c2ccccc2)n1C` (stereo not drawn): the TGI in the test with BT-549 breast is greater than 100 µM; with CCRF-CEM leukemia, greater than 100 µM; in the test on COLO 205 colon it was 95.8 µM; in the test on HCT-15 colon, greater than 100 µM; in the test with MALME-3M melanoma it was 60 µM; in the test on NCI/ADR-RES ovarian, greater than 100 µM. The TGI with OVCAR-5 ovarian and in the test on SW-620 colon was greater than 100 µM each time.
On to `CN(C)CC(CC1=C(CC(CN(C)C)N(C)C)CCC1)N(C)C` (stereo not drawn), for which the TGI in the test on CCRF-CEM leukemia, in the test on COLO 205 colon, in the test with HCC-2998 colon, with HCT-15 colon, with MALME-3M melanoma and in the test on NCI/ADR-RES ovarian was greater than 100 µM throughout. Moreover, the TGI in the test on OVCAR-5 ovarian and in the test with SW-620 colon was greater than 100 µM in each case.
On to `NC(=O)c1c(NC(=O)c2ccccn2)sc2c1CCC(=O)C2`, for which the GI50 is 2.18 µM with BT-549 breast; 2.02 µM in the test on CCRF-CEM leukemia; 2.63 µM with HCT-15 colon; 3.05 µM in the test with OVCAR-5 ovarian; 0.832 µM in the test on SR leukemia; 0.882 µM in the test on SW-620 colon. The TGI in the test with BT-549 breast, in the test with CCRF-CEM leukemia, with HCT-15 colon, in the test with OVCAR-5 ovarian, in the test with SR leukemia and with SW-620 colon was greater than 100 µM in each case.
In the case of `CCN(CC(=O)O)C(=O)c1cccnc1`, the TGI with BT-549 breast, in the test on HCC-2998 colon, in the test with HCT-15 colon, in the test on MALME-3M melanoma, in the test on NCI/ADR-RES ovarian and with OVCAR-5 ovarian was greater than 100 µM each time. The TGI in the test on SR leukemia and in the test on SW-620 colon was greater than 100 µM each time.
